Assays:
[1] = system: Alternaria alternata; assay: Fungicidal activity against Alternaria alternata apple pathotype assessed as inhibition of mycelial growth by agar dilution method; type: functional, organism-based
[2] = system: Pseudoperonospora cubensis; assay: Fungicidal activity against Pseudoperonospora cubensis assessed as cucumber downy mildew disease control at 31.3 ppm foliar application 24 hr after inoculation on upper surface of leaf by curative manner; type: functional
[3] = system: Botrytis cinerea; assay: Fungicidal activity against Botryotinia fuckeliana assessed as cucumber gray mold disease control at 7.8 ppm foliar application 24 hr before inoculation at 22 +/- 2 degC measured after 3 days by preventive manner; type: functional
[4] = system: Pyricularia oryzae; assay: Fungicidal activity against Magnaporthe oryzae assessed as rice blast disease control at 2.5 ppm submerged application measured after 7 days; type: functional
[5] = system: Podosphaera fuliginea; assay: Fungicidal activity against Podosphaera fuliginea assessed as cucumber powdery mildew control under greenhouse at 7.8 ppm foliar application 24 hr after inoculation on upper surface of leaf at 23 +/- 2 degC by curative manner; type: functional
[6] = system: Colletotrichum lagenaria; assay: Fungicidal activity against Colletotrichum lagenaria assessed as inhibition of mycelial growth by agar dilution method; type: functional, organism-based
[7] = system: Podosphaera fuliginea; assay: Fungicidal activity against Podosphaera fuliginea assessed as cucumber powdery mildew control under greenhouse at 31.3 ppm foliar application 24 hr before inoculation on upper surface of leaf at 23 +/- 2 degC by preventive manner; type: functional
[8] = system: Pseudoperonospora cubensis; assay: Fungicidal activity against Pseudoperonospora cubensis assessed as cucumber downy mildew disease control at 7.8 ppm foliar application 24 hr before inoculation on upper surface of leaf by preventive manner; type: functional
[9] = system: Pseudoperonospora cubensis; assay: Fungicidal activity against Pseudoperonospora cubensis assessed as cucumber downy mildew disease control at 125 ppm foliar application 24 hr before inoculation on upper surface of leaf by preventive manner; type: functional
[10] = system: Botrytis cinerea; assay: Fungicidal activity against Botryotinia fuckeliana assessed as cucumber gray mold disease control at 31.3 ppm foliar application 24 hr before inoculation at 22 +/- 2 degC measured after 3 days by preventive manner; type: functional
[11] = system: Sclerotinia sclerotiorum; assay: Fungicidal activity against Sclerotinia sclerotiorum assessed as inhibition of mycelial growth by agar dilution method; type: functional, organism-based
[12] = system: Pseudoperonospora cubensis; assay: Fungicidal activity against Pseudoperonospora cubensis assessed as cucumber downy mildew disease control at 125 ppm foliar application 24 hr after inoculation on upper surface of leaf by curative manner; type: functional
[13] = system: Pyricularia oryzae; assay: Fungicidal activity against Magnaporthe oryzae assessed as rice blast disease control at 0.16 ppm submerged application measured after 7 days; type: functional
[14] = system: Colletotrichum gloeosporioides; assay: Fungicidal activity against Glomerella cingulata assessed as inhibition of mycelial growth by agar dilution method; type: functional, organism-based
[15] = system: Podosphaera fuliginea; assay: Fungicidal activity against Podosphaera fuliginea assessed as cucumber powdery mildew control under greenhouse at 31.3 ppm foliar application 24 hr after inoculation on upper surface of leaf at 23 +/- 2 degC by curative manner; type: functional
[16] = system: Pythium aphanidermatum; assay: Fungicidal activity against Pythium aphanidermatum assessed as inhibition of mycelial growth by agar dilution method; type: functional, organism-based
[17] = system: Podosphaera fuliginea; assay: Fungicidal activity against Podosphaera fuliginea assessed as cucumber powdery mildew control under greenhouse at 125 ppm foliar application 24 hr before inoculation on upper surface of leaf at 23 +/- 2 degC by preventive manner; type: functional
[18] = system: Podosphaera fuliginea; assay: Fungicidal activity against Podosphaera fuliginea assessed as cucumber powdery mildew control under greenhouse at 2 ppm foliar application 24 hr after inoculation on upper surface of leaf at 23 +/- 2 degC by curative manner; type: functional
[19] = system: Pseudoperonospora cubensis; assay: Fungicidal activity against Pseudoperonospora cubensis assessed as cucumber downy mildew disease control at 2 ppm foliar application 24 hr after inoculation on upper surface of leaf by curative manner; type: functional
[20] = system: Podosphaera fuliginea; assay: Fungicidal activity against Podosphaera fuliginea assessed as cucumber powdery mildew control under greenhouse at 125 ppm foliar application 24 hr after inoculation on upper surface of leaf at 23 +/- 2 degC by curative manner; type: functional
[21] = system: Pseudoperonospora cubensis; assay: Fungicidal activity against Pseudoperonospora cubensis assessed as cucumber downy mildew disease control at 7.8 ppm foliar application 24 hr after inoculation on upper surface of leaf by curative manner; type: functional
[22] = system: Thanatephorus cucumeris; assay: Fungicidal activity against Thanatephorus cucumeris assessed as rice sheath blight disease control at 7.8 ppm foliar application for 24 hr before inoculation at 26 +- 2 measured after 5 days by preventive manner; type: functional
[23] = system: Pyricularia oryzae; assay: Fungicidal activity against Magnaporthe oryzae assessed as rice blast disease control at 10 ppm submerged application measured after 7 days; type: functional
[24] = system: Botrytis cinerea; assay: Fungicidal activity against Botryotinia fuckeliana assessed as cucumber gray mold disease control at 7.8 ppm foliar application 24 hr after inoculation at 22 +/- 2 degC measured after 3 days by curative manner; type: functional
[25] = system: Botrytis cinerea; assay: Fungicidal activity against Botryotinia fuckeliana assessed as inhibition of mycelial growth by agar dilution method; type: functional, organism-based
[26] = system: Cladosporium herbarum; assay: Fungicidal activity against Cladosporium herbarum assessed as inhibition of mycelial growth by agar dilution method; type: functional, organism-based
[27] = system: Athelia rolfsii; assay: Fungicidal activity against Athelia rolfsii assessed as inhibition of mycelial growth by agar dilution method; type: functional, organism-based, Agroathelia rolfsii
[28] = system: Pyricularia oryzae; assay: Fungicidal activity against Magnaporthe oryzae assessed as inhibition of mycelial growth by agar dilution method; type: functional, organism-based
[29] = system: Pyricularia oryzae; assay: Fungicidal activity against Magnaporthe oryzae assessed as rice blast disease control at 0.63 ppm submerged application measured after 7 days; type: functional
[30] = system: Fusarium oxysporum; assay: Fungicidal activity against Fusarium oxysporum assessed as inhibition of mycelial growth by agar dilution method; type: functional, organism-based
[31] = system: Pseudoperonospora cubensis; assay: Fungicidal activity against Pseudoperonospora cubensis assessed as cucumber downy mildew disease control at 31.3 ppm foliar application 24 hr before inoculation on upper surface of leaf by preventive manner; type: functional
[32] = system: Botrytis cinerea; assay: Fungicidal activity against Botryotinia fuckeliana assessed as cucumber gray mold disease control at 2 ppm foliar application 24 hr after inoculation at 22 +/- 2 degC measured after 3 days by curative manner; type: functional
[33] = system: Botrytis cinerea; assay: Fungicidal activity against Botryotinia fuckeliana assessed as cucumber gray mold disease control at 125 ppm foliar application 24 hr before inoculation at 22 +/- 2 degC measured after 3 days by preventive manner; type: functional
[34] = system: Botrytis cinerea; assay: Fungicidal activity against Botryotinia fuckeliana assessed as cucumber gray mold disease control at 31.3 ppm foliar application 24 hr after inoculation at 22 +/- 2 degC measured after 3 days by curative manner; type: functional
[35] = system: Podosphaera fuliginea; assay: Fungicidal activity against Podosphaera fuliginea assessed as cucumber powdery mildew control under greenhouse at 7.8 ppm foliar application 24 hr before inoculation on upper surface of leaf at 23 +/- 2 degC by preventive manner; type: functional
[36] = system: Botrytis cinerea; assay: Fungicidal activity against Botryotinia fuckeliana assessed as cucumber gray mold disease control at 125 ppm foliar application 24 hr after inoculation at 22 +/- 2 degC measured after 3 days by curative manner; type: functional
[37] = system: Thanatephorus cucumeris; assay: Fungicidal activity against Thanatephorus cucumeris assessed as rice sheath blight disease control at 31.3 ppm foliar application for 24 hr before inoculation at 26 +- 2 measured after 5 days by preventive manner; type: functional
[38] = system: Thanatephorus cucumeris; assay: Fungicidal activity against Thanatephorus cucumeris assessed as rice sheath blight disease control at 125 ppm foliar application for 24 hr before inoculation at 26 +- 2 measured after 5 days by preventive manner; type: functional

CNC(=O)/C(=N/OC)c1ccccc1Oc1ccccc1 [METOMINOSTROBIN]
EC50 [1]: 20.8 ppm
Activity [2]: 50%
Activity [3]: 73%
Activity [4]: 50%
Activity [5]: 50%
EC50 [6]: 4.7 ppm
Activity [7]: 100%
Activity [8]: 30%
Activity [9]: 100%
Activity [10]: 92%
EC50 [11]: 2 ppm
Activity [12]: 50%
Activity [13]: 50%
EC50 [14]: 7.2 ppm
Activity [15]: 50%
EC50 [16]: 2.8 ppm
Activity [17]: 100%
Activity [18]: 50%
Activity [19]: 50%
Activity [20]: 50%
Activity [21]: 50%
Activity [22]: 50%
Activity [23]: 50%
Activity [24]: 50%
EC50 [25]: 1.1 ppm
EC50 [26]: 4.5 ppm
EC50 [27]: 2.5 ppm
EC50 [28]: 5.6 ppm
Activity [29]: 50%
EC50 [30]: 6.2 ppm
Activity [31]: 100%
Activity [32]: 50%
Activity [33]: 95%
Activity [34]: 50%
Activity [35]: 70%
Activity [36]: 50%
Activity [37]: 70%
Activity [38]: 70%

From ChEMBL document CHEMBL3045600, “Synthesis and Fungicidal Activities of Phenoxyphenyl Alkoxyiminoacetamide Derivatives” (J Pestic Sci, 1998)
